Assays:
Format in all cases: cell-based
A549 cells = assay: in vitro antiproliferation assay, A549 (lung); conditions: A549 (lung) cells
Procedure, shortened: (§1)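 IC50 values came from standard antiproliferation testing in cultured tumour cells; the A549 and H1299 lines are of lung origin.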

H1299 cells = assay: in vitro antiproliferation assay, H1299 (lung); conditions: H1299 (lung) cells
Procedure, shortened: as §1

ACHN = assay: in vitro antiproliferation assay, ACHN (kidney/p53 wt)
Description: (§2) The IC50 values of various compounds against a various different tumor cell lines were determined using standard in vitro antiproliferation assays. The tumor cell lines tested were as follows: A549 (lung); H1299 (lung), ACHN (kidney/p53 wt), CAKI (renal cell carcinoma), NCI-H460 (lung); HCT116 (colon/p53w0; HELA (cervix/p53 wt), HUH7 (liver/p53 wt), HUVEC (primary endothelial), LNCAP (prostate), HT-29 (colon); MCF-7 (breast); MCF-7 (breast/ER positive), MDA MB435S (breast); MDA MB231 (breast/ER negative), DU145 (prostate); BxPC-3 (pancreatic); SKOV-3 (ovarian); HepG2 (hepatic), NDHF primary normal human dermal fibroblast), SKMEL28 (breast/p53mut), SKMEL5 (breast/p53 wt), U20S (bone) and PC3 (prostate). […] A blank indicates the specified compound was not tested against the specified cell line.
(§3) Many of the compounds were tested against other cell lines. Their activity is reported in TABLE 15, below, where +”, “−”, “−/+” or “+/−” values are as described for TABLES 1-14. Where the cell line includes a value in a parenthetical, the value indicates the seeding density at which the assay was performed

CAKI = assay: in vitro antiproliferation assay, CAKI (renal cell carcinoma)
Description: as §2, §3

HCT116 = assay: in vitro antiproliferation assay, HCT116 (colon); conditions: HCT116 (colon); read-out: HCT116
Procedure, shortened: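 IC50 is the reported value, taken from a conventional in vitro antiproliferation assay. Seeding density is indicated by any parenthetical figure attached to the cell line.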

SKMEL28 = assay: in vitro antiproliferation assay, SKMEL28 (breast/p53mut)
Description: as §2, §3

SKMEL5 = assay: in vitro antiproliferation assay, SKMEL5
Description: as §2, §3

U20S = assay: in vitro antiproliferation assay, U20S (bone)
Description: as §2, §3

PC3 = assay: in vitro antiproliferation assay, PC3 (prostate)
Description: as §2, §3

HUVEC = assay: in vitro antiproliferation assay, HUVEC (primary endothelial)
Description: as §2, §3

IC50 (A549 cells; antiproliferation) | IC50 (H1299 cells; antiproliferation) | IC50 (PC3) | Compound | also measured
 |  |  | COc1ccc(N(C)c2nc(Nc3cccc(-c4ncco4)c3)ncc2F)cc1OC [compound 868] | IC50 (A549 cells; in vitro antiproliferation): ≤ 20 µM; IC50 (H1299 cells; in vitro antiproliferation): ≤ 20 µM; IC50 (ACHN): ≤ 20 µM; IC50 (CAKI): ≤ 20 µM; IC50 (HCT116): ≤ 20 µM; IC50 (SKMEL28): ≤ 20 µM; IC50 (SKMEL5): ≤ 20 µM; IC50 (U20S): ≤ 20 µM
 |  |  | COc1ccc(N(C)c2nc(Nc3ccc(-c4ncco4)cc3)ncc2F)cc1OC [compound 869] | IC50 (A549 cells; in vitro antiproliferation): ≤ 20 µM; IC50 (H1299 cells; in vitro antiproliferation): ≤ 20 µM; IC50 (ACHN): ≤ 20 µM; IC50 (SKMEL28): ≤ 20 µM; IC50 (SKMEL5): ≤ 20 µM
≤ 20 µM | ≤ 20 µM | ≤ 20 µM | COc1cc(Nc2nc(Nc3cccc(OCCO)c3)ncc2F)cc(OC)c1 [compound 940] | IC50 (HCT116): ≤ 20 µM
> 20 µM | ≤ 20 µM | ≤ 20 µM | CCOC(=O)COc1cccc(Nc2ncc(F)c(Nc3cc(C)c(O)c(C)c3)n2)c1 [compound 947] | 
≤ 20 µM | ≤ 20 µM | ≤ 20 µM | Cc1cc(Nc2nc(Nc3cccc(OCCN4CCOCC4)c3)ncc2F)cc(C)c1O [compound 949] | IC50 (HCT116): ≤ 20 µM; IC50 (SKMEL28): ≤ 20 µM
> 20 µM | > 20 µM | > 20 µM | CCOC(=O)COc1cccc(Nc2nc(Nc3cccc(C(C)(C)C)c3)ncc2F)c1 [compound 955] | 
> 20 µM | > 20 µM | > 20 µM | CCOC(=O)COc1cccc(Nc2ncc(F)c(Nc3cccc(C(C)(C)C)c3)n2)c1 [compound 958] | 
> 20 µM | > 20 µM | > 20 µM | CC(C)(C)c1cccc(Nc2nc(Nc3cccc(OCC(=O)O)c3)ncc2F)c1 [compound 962] | 
> 20 µM | ≤ 20 µM | > 20 µM | Cc1cc(Nc2nc(Nc3cccc(OCC(=O)O)c3)ncc2F)cc(C)c1O [compound 979] | 
> 20 µM |  | > 20 µM | COC(=O)COc1cccc(Nc2ncc(F)c(Nc3cc(C)c(O)c(C)c3)n2)c1 [compound 982] | 
≤ 20 µM |  | > 20 µM | Cc1cc(Nc2nc(Nc3cccc(OCC(=O)N4CCNCC4)c3)ncc2F)cc(Cl)c1O [compound 983] | 
≤ 20 µM |  | ≤ 20 µM | Cc1cc(Nc2nc(Nc3cccc(OCCN4CCNCC4)c3)ncc2F)cc(Cl)c1O [compound 984] | IC50 (HCT116): ≤ 20 µM
> 20 µM |  | > 20 µM | COC(=O)COc1cccc(Nc2ncc(F)c(Nc3cc(C)c(OC)c(C)c3)n2)c1 [compound 985] | 
> 20 µM |  | > 20 µM | COc1c(C)cc(Nc2nc(Nc3cccc(OCC(=O)N4CCNCC4)c3)ncc2F)cc1C [compound 986] | 
> 20 µM |  | ≤ 20 µM | COc1c(C)cc(Nc2nc(Nc3cccc(OCCN4CCNCC4)c3)ncc2F)cc1C [compound 987] | 
≤ 20 µM | ≤ 20 µM |  | CNC(=O)COc1cccc(Nc2ncc(F)c(Nc3ccc(Cl)c(Cl)c3)n2)c1 [compound 1006] | IC50 (HUVEC): ≤ 20 µM
> 20 µM | > 20 µM |  | Cc1cc(C)cc(Nc2ncc(F)c(N(C)c3ccc(Cl)c(Cl)c3)n2)c1 [compound 1007] | IC50 (HUVEC): > 20 µM
> 20 µM | > 20 µM |  | COc1cc(Nc2ncc(F)c(N(C)c3ccc(Cl)c(Cl)c3)n2)cc(OC)c1 [compound 1009] | IC50 (HUVEC): ≤ 20 µM

Reference: patent US8809341B2, “2,4-pyrimidinediamine compounds and uses as anti-proliferative agents” (Rigel Pharmaceuticals, Inc., priority 2003, dated 2014)
